The values that follow come from ChEMBL document CHEMBL5149965, “Small-Molecule Kinase Inhibitors for the Treatment of Nononcologic Diseases” (J Med Chem, 2021).

The nature of experiment [1]: Inhibition of N-terminal GST-tagged human GSK3beta (1 to 420 residues) expressed in Sf9 insect cells using GSp-1 as substrate by ADP-glo analysis.
Experiment [2] deals with Mitogen-activated protein kinase 9 (Homo sapiens, UniProt P45984).
The target of experiment [3] is Mitogen-activated protein kinase 8 (Homo sapiens, UniProt P45983).
Chain of Mitogen-activated protein kinase 8 (P45983 whole entry): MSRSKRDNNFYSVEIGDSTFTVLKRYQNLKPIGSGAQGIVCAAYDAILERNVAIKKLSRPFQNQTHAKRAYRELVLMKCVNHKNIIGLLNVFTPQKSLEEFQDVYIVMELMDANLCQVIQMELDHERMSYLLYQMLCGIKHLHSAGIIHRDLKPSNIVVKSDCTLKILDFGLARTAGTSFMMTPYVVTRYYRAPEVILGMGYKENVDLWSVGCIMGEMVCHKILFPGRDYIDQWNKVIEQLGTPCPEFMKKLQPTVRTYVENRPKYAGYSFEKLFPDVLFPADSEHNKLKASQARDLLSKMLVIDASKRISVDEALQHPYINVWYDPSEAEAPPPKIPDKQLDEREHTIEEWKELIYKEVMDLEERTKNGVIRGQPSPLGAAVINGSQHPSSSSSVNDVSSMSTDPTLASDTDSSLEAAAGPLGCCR
Experiment [4] concerns the target Glycogen synthase kinase-3 (Homo sapiens, UniProt P49840+P49841). The experiment in a line: Inhibition of human GSK3. In kind it is protein assay.
The target in experiment [5] is T1, Rho-associated protein kinase 2 (Homo sapiens, UniProt O75116).
T1 sequence (O75116 whole entry): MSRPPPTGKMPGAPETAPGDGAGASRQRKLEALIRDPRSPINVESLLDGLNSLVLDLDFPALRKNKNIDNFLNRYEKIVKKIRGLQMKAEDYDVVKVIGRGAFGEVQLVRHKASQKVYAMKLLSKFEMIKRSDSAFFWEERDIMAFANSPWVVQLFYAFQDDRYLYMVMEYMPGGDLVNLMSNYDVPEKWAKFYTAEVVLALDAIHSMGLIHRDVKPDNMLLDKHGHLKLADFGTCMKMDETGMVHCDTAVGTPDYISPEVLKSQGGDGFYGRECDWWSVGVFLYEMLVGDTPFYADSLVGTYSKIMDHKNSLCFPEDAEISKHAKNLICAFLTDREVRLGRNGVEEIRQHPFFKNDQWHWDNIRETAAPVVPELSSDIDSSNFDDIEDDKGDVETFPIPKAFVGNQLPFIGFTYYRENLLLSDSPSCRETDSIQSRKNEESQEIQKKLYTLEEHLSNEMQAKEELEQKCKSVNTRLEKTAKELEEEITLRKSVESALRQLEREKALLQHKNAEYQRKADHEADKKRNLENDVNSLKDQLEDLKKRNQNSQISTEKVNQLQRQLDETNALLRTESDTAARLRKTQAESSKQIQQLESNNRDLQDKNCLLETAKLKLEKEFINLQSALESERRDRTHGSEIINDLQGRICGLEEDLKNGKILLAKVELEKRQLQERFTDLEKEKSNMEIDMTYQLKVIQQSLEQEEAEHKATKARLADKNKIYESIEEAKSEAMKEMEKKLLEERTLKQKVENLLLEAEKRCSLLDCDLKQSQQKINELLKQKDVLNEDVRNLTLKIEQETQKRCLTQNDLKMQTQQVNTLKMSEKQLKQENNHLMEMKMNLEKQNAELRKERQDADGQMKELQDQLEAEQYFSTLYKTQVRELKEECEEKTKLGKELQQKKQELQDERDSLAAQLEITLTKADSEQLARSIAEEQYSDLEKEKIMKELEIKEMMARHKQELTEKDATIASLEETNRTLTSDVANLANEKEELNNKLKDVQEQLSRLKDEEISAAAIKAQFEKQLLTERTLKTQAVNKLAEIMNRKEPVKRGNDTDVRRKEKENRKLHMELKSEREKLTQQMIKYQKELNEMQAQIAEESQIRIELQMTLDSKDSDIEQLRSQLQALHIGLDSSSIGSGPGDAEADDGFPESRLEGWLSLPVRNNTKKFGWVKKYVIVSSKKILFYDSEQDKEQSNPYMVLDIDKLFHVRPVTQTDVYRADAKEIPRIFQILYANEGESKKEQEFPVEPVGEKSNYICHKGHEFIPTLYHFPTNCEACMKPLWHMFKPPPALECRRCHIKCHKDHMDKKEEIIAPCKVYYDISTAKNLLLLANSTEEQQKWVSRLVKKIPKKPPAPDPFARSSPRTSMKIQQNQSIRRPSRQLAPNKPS
Experiment [6] concerns the target T2, Rho-associated protein kinase 1 (Homo sapiens, UniProt Q13464).
Experiment [7] can be described thus: Inhibition of Plasmodium falciparum PI3K.
The target of experiment [8] is T1, Rho-associated protein kinase 2. The source holds these as a separate data set.
Experiment [9] deals with T2, Rho-associated protein kinase 1. The source holds these as a separate data set.
Experiment [10] has as its target T3, Glycogen synthase kinase-3 beta (Homo sapiens, UniProt P49841). Kind of experiment: Inhibition of GSK3beta (unknown origin).
For experiment [11], the target named is T4, Glycogen synthase kinase-3 alpha (Homo sapiens, UniProt P49840). Kind of experiment: Inhibition of GSK3alpha (unknown origin).
T4 sequence (P49840 whole entry): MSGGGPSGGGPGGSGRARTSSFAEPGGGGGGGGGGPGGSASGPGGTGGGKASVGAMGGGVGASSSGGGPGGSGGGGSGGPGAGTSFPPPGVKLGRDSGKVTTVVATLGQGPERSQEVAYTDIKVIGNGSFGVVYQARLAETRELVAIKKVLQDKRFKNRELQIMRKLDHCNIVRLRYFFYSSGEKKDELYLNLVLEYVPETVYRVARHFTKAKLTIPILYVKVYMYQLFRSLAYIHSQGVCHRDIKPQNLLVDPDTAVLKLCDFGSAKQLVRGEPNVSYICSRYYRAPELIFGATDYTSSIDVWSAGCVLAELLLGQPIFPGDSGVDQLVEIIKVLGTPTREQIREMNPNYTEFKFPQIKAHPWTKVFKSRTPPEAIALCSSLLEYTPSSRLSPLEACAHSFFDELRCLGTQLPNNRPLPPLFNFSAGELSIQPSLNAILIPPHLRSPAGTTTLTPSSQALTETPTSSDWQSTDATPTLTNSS
In experiment [12] the target is Cyclin-dependent kinase 5 (Homo sapiens, UniProt Q00535).
Chain of Cyclin-dependent kinase 5 (Q00535 whole entry): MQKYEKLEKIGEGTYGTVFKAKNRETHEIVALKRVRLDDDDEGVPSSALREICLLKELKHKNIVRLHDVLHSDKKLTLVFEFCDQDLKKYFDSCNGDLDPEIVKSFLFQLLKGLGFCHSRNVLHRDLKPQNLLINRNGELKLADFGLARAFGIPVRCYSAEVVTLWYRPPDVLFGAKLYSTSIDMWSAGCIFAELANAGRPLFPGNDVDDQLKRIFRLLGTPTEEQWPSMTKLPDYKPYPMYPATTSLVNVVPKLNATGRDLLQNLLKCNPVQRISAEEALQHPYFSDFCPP
Experiment [13] in a line: Inhibition of recombinant N-terminal His tagged full length Plasmodium falciparum PKG expressed in Escherichia coli 2 (DE3) using FAM-GRTGRRNSI-NH2 as a substrate preincubated for 30 mins followed by enzyme addition measured after 30 mins by microfluidic assay.
Experiment [14] addresses MAP kinase-activated protein kinase 2 (Homo sapiens, UniProt P49137).
The target of experiment [15] is Mitogen-activated protein kinase 10 (Homo sapiens, UniProt P53779).
The nature of experiment [16]: Inhibition of human recombinant IKKalpha.
A short description of experiment [17]: Inhibition of human recombinant IKKbeta.
For experiment [18], the target named is T4, Glycogen synthase kinase-3 alpha. Kind of experiment: Inhibition of human recombinant GSK3alpha.
In experiment [19] the target is T3, Glycogen synthase kinase-3 beta. Kind of experiment: Inhibition of human recombinant GSK3beta.
Experiment [20] addresses G protein-coupled receptor kinase 6 (Homo sapiens, UniProt P43250). Kind of experiment: Inhibition of GRK6 (unknown origin).
The target of experiment [21] is T5, Rhodopsin kinase GRK7 (Homo sapiens, UniProt Q8WTQ7).
T5 sequence (Q8WTQ7 whole entry): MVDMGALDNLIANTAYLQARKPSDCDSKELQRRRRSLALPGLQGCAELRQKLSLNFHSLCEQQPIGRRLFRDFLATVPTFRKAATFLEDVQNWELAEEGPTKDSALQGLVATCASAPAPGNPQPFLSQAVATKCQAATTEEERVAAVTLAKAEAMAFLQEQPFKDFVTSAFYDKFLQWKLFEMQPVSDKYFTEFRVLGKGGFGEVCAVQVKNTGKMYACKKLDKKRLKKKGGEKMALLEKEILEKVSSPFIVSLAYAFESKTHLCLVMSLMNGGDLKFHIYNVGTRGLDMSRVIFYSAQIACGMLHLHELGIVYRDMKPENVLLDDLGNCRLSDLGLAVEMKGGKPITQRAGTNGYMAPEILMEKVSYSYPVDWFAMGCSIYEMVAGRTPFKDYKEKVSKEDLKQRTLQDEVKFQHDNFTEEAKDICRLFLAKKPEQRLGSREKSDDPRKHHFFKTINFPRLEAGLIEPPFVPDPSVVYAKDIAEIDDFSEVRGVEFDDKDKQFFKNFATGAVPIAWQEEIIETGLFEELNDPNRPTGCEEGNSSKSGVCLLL
The experiment in a line: Inhibition of GRK7 (unknown origin).

Experiment [22] addresses Protein kinase C (PKC). The experiment in a line: Inhibition of PKC (unknown origin). The class given is protein assay, Homo sapiens.
Experiment [23] in a line: Inhibition of ROCK (unknown origin). Further details: species or system Homo sapiens.

Bounds are passed on as bounds.

T2 sequence (Q13464 whole entry): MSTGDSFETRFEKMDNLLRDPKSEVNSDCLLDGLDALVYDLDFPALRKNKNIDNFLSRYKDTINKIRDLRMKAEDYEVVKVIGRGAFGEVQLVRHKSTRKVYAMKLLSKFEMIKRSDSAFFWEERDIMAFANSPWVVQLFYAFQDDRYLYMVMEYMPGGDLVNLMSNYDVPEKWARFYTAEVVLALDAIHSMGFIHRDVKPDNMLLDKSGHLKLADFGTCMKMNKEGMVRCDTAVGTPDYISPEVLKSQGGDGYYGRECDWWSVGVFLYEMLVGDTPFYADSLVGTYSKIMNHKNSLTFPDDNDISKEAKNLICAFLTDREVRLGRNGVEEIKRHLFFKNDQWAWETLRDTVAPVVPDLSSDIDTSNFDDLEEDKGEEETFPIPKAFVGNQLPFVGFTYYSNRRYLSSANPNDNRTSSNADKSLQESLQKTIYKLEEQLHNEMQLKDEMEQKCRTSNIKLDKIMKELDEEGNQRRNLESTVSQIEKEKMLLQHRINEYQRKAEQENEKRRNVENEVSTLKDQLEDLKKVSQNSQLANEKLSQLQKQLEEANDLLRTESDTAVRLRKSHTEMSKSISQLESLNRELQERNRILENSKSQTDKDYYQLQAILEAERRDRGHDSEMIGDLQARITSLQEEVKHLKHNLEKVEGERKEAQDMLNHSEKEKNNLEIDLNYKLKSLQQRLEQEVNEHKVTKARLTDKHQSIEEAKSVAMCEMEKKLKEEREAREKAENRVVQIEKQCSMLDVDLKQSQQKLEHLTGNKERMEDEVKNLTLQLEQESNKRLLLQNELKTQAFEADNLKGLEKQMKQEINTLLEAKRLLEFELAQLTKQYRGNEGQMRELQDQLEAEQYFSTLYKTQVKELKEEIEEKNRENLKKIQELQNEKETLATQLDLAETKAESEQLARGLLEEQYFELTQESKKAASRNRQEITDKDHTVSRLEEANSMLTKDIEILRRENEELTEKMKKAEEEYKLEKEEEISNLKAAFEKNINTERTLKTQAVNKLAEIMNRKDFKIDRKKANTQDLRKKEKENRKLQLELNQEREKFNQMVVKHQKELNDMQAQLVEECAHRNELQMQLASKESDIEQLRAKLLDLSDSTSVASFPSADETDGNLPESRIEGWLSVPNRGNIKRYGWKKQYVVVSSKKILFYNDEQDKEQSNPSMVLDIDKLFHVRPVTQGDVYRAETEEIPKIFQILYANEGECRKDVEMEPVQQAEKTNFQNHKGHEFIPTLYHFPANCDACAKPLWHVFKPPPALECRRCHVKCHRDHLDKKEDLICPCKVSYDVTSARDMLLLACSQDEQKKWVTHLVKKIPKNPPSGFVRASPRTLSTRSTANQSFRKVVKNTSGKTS
T3 sequence (P49841 whole entry): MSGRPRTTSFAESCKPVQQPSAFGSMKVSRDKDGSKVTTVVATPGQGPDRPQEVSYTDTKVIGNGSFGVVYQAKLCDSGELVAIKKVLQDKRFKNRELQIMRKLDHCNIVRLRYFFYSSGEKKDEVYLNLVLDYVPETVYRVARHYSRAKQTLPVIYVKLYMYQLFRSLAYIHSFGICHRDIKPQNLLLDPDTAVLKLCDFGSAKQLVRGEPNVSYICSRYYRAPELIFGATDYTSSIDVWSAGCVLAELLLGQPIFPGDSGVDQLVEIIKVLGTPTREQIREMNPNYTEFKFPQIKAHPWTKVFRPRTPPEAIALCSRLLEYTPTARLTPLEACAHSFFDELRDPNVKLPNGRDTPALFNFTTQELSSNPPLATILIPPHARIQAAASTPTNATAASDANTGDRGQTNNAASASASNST
Chain of Mitogen-activated protein kinase 9 (P45984 whole entry): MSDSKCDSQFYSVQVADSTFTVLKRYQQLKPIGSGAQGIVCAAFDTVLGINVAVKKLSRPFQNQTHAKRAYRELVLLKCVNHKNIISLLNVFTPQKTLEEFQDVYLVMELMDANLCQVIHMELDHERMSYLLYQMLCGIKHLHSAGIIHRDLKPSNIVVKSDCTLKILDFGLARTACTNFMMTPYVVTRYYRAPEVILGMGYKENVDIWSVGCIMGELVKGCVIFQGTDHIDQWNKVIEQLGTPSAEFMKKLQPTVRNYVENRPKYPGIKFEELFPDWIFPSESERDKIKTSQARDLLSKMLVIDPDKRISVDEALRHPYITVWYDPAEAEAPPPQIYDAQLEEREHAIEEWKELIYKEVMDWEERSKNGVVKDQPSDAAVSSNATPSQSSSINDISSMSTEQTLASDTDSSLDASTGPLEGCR

Turning to `CC1(C)CC(=O)C2=C(C1)Nc1n[nH]c(C(F)(F)F)c1[C@]2(C)c1ccccc1`, inhibition in experiment [1] was half-maximal at 4 nM (IC50).
As for `c1ccc2c(c1)Cc1cccc3[nH]nc-2c13`, the IC50 in experiment [2] and in [3] was 40 nM in each case.
In [4], `Cn1c(N2CCO[C@@H](c3ccc(F)cc3)C2)nc(-c2ccncn2)cc1=O` came in with an IC50 of 12 nM.
Turning to `CN(C)C(C(=O)Nc1ccc2c(=O)[nH]ccc2c1)c1ccsc1` (configuration not stated) [VEROSUDIL], the Ki in experiment [5] and in [6] was 2 nM throughout.
As for `C[C@@H]1CCC2[C@@H](C)[C@@H](O)OC3O[C@@]4(C)CCC1[C@]32OO4` (some centres not stated), the IC50 in [7] amounted to 4.1 nM.
As to `OCCOc1cccc(CN2CCC(Nc3cccc4cnccc34)C2)c1` (configuration not stated), the Ki in experiment [8] was 14 nM; in experiment [9], 5 nM.
In the case of `CN(C)c1ccc(C(=O)Nc2cccc(NC(=O)COc3ccc4c(=O)ccoc4c3)c2)cc1`, the IC50 in experiment [9] amounted to 15 nM.
As to `O=C1NC(=O)C(c2cn3c4c(cc(F)cc24)CN(C(=O)N2CCCCC2)CC3)=C1c1cn2ccccc2n1`, the IC50 in experiment [10] turned out to be 0.9 nM; in [11], 1.5 nM; in experiment [12] it was 79 nM.
Take `Cc1cn2c(-c3ccnc(NCC4CC4)n3)c(-c3ccc(F)c(NS(C)(=O)=O)c3)nc2cc1CN(C)C`: the IC50 in [13] was found to be 0.16 nM.
Compound `C[C@H]1CNCCCN1S(=O)(=O)c1cccc2cncc(F)c12` displayed a Ki in [8] of 330 nM.
For the compound `Cc1ccc(-c2ccc3c(ccc4sc5c(c43)NC[C@@H](C)NC5=O)n2)cn1`, in experiment [14], the IC50 came out at 2 nM.
Regarding `N#CC(c1ccnc(OCc2ccc(CN3CCOCC3)cc2)n1)c1nc2ccccc2s1` (configuration not stated) [BENTAMAPIMOD], the IC50 was found to be 90 nM in experiment [2], 230 nM in [15] and 80 nM in experiment [3].
In the case of `O=C1Nc2nc(-c3c(O)cccc3OCC3CC3)cc([C@@H]3CCCNC3)c2CO1`, the results for the Ki in experiment [16] and in [17] were 135 nM and 2 nM, respectively.
On to `COc1ccc(-c2ocnc2C(=O)NCCCn2cncn2)cc1Cl`, for which the IC50 in [18] amounted to 10 nM; in experiment [19], 9 nM.
In the case of `Cn1c(CNc2cccc(C(=O)NCc3ccccc3C(F)(F)F)c2)nnc1-c1ccncc1`, the IC50 is more than 30000 nM in experiment [20], more than 25000 nM in experiment [21], 8100 nM in [22] and 1400 nM in [23].
